Assay results published in patent US11666558B2, “Methods of treating intraocular pressure with activators of Tie-2” (EyePoint Pharmaceuticals, Inc., priority 2015, dated 2023).
Read-outs that look alike come from different tables or passages of the source.

Assay: Ocular tissue concentrations (aqueous humor, vitreous humor, iris, retina, choroid, cornea) after topical ocular, subcutaneous and intravitreal administration
Type: in vivo, New Zealand White rabbits
Conditions: for Cornea Conc. (ng/mL) OS: Cornea homogenate; for Cornea Conc. (ng/mL) OS / concentration at 0.5 h / concentration at 1 h / concentration at 2 h / concentration at 4 h: subcutaneous 5 mg/kg/dose; for concentration at 6 hr / concentration at 24 hr / concentration at 48 hr / concentration at 72 hr / concentration at 0.5 h / concentration at 1 h / concentration at 2 h / concentration at 4 h: New Zealand White, rabbit; for concentration at 6 hr / concentration at 24 hr / concentration at 48 hr / concentration at 72 hr: other: intravitreal, 2.5 mg/eye; for concentration at 0.5 h / concentration at 1 h / concentration at 2 h / concentration at 4 h: subcutaneous, 5 mg/kg/dose
Experimental: To measure the concentration of Compound 1 in plasma and ocular tissues following topical ocular, subcutaneous, and intravitreal administration, New Zealand White rabbits were administered Compound 1, and plasma and ocular samples were collected at pre-determined time points. Compound 1 formulations were prepared fresh on each day of dosing.
Ocular tissue samples from both eyes of each animal were collected and weights were recorded. Plasma and ocular tissue sample concentrations of Compound 1 were determined by LC-MS/MS.
New Zealand White rabbits weighing 2.5 to 3.5 kg were used on this study. Rabbits were housed one per cage. Animals were not fasted and only healthy animals with no ocular illness were used. Two rabbits per group were sacrificed at each of four ocular tissue sampling time points for a total of eight rabbits per group.
Animals were anesthetized for ocular (topical) and intravitreal dosing following the 12IA7 IACUC protocol. Each rabbit received a bolus dose of test formulation either via topical ocular administration 3 times daily on Days 1 and 2 (at 0, 6, and 12 hours), and once on Day 3 (at 0 hours) into both eyes; via intravitreal administration into both eyes once on Day 1 (at 0 hours); or via subcutaneous administration 2 times daily on Days 1 and 2 (at 0 and 8 hours) and once daily on Day 3 (at 0 hours). Doses were given within an approximately 1 hour window each day where applicable.
On Day 1, for intravitreal administration, or on Day 3, for topical ocular and subcutaneous administration, at the appropriate ocular tissue collection time points, animals were euthanized and both eyes were enucleated immediately. Following enucleation, each eye was rinsed with phosphate-buffered saline. Ocular tissue samples from both eyes of each animal were collected at predetermined time points and weights were recorded. All the samples were frozen immediately on dry ice, and stored at −60° C. to −80° C. pending bioanalysis.
An LC-MS/MS method was developed for the determination of Compound 1 in rabbit aqueous tissues (plasma, aqueous and vitreous humor) and solid ocular tissue samples. A pre-study standard curve was analyzed to determine the specificity, range, and lower limit of quantitation of the method. Plasma and tissue homogenate study samples were extracted and analyzed. All the samples were treated identically to the standards.
One eight-point standard curve was used in each analytical batch. To be accepted, each batch must have had at least five of eight standards with accuracy within ±20% of nominal, except at the lower limit of quantification (LLOQ), where ±25% was acceptable.
Concentration versus time data is plotted in FIGS. 3-16. All data are expressed as ng/g of the free drug. Samples that were below the limit of quantitation (0.2 ng/mL) were not used in the calculation of averages.

[1] = choroid homogenate, Choroid homogenate, left eye, intravitreal 2.5 mg/eye (group 5), individual animals, read-out: Conc. (ng/mL) OS
[2] = choroid homogenate, Choroid homogenate, OD, sodium salt, intravitreal 2.5 mg/eye, Group 4, read-out: Choroid Conc. (ng/mL) OD
[3] = choroid homogenate, Choroid homogenate, OS, sodium salt, intravitreal 2.5 mg/eye, Group 4, read-out: Choroid Conc. (ng/mL) OS
[4] = choroid homogenate, Choroid homogenate, right eye, intravitreal 2.5 mg/eye (group 5), individual animals, read-out: Conc. (ng/mL) OD
[5] = choroid homogenate, Choroid homogenate, OD, sodium salt, Group 2, read-out: Choroid Conc. (ng/mL) OD
[6] = choroid homogenate, Choroid homogenate, OS, sodium salt, Group 2, read-out: Choroid Conc. (ng/mL) OS
[7] = choroid, Choroid, OD, sodium salt, intravitreal 2.5 mg/eye, Group 4, read-out: Choroid Conc. (ng/g) OD
[8] = choroid, Choroid, OS, sodium salt, intravitreal 2.5 mg/eye, Group 4, read-out: Choroid Conc. (ng/g) OS
[9] = choroid, Choroid, average, intravitreal 2.5 mg/eye (group 5), read-out: Avg.
[10] = choroid, Choroid, left eye, intravitreal 2.5 mg/eye (group 5), individual animals, read-out: Conc. (ng/g) OS
[11] = choroid, Choroid, sodium salt, intravitreal 2.5 mg/eye, Group 4, read-out: Choroid Avg.
[12] = choroid, Choroid, right eye, intravitreal 2.5 mg/eye (group 5), individual animals, read-out: Conc. (ng/g) OD
[13] = choroid, Choroid, OD, sodium salt, Group 2, read-out: Choroid Conc. (ng/g) OD
[14] = choroid, Choroid, OS, sodium salt, Group 2, read-out: Choroid Conc. (ng/g) OS
[15] = choroid, Choroid, free acid, Group 3, read-out: Choroid Average
[16] = choroid, Choroid, sodium salt, Group 2, read-out: Choroid Average

## COC(=O)N[C@@H](Cc1ccccc1)C(=O)N[C@@H](Cc1ccc(NS(=O)(=O)O)cc1)c1csc(-c2cccs2)n1 [Compound 1]
1 hr, OS, free acid, Group 3
  Cornea Conc. (ng/mL) OS: BLOQ (Below the limit of quantitation (0.5 ng/mL))
2 hr, OS, free acid, Group 3
  Cornea Conc. (ng/mL) OS: BLOQ (Below the limit of quantitation (0.5 ng/mL))
[1]
  concentration at 6 hr: 63400 ng/mL
  concentration at 24 hr: 28400 ng/mL
  concentration at 48 hr: 9320 ng/mL
  concentration at 72 hr: 2660 ng/mL
[2]
  concentration at 24 hr: 11800 ng/mL
  concentration at 48 hr: 3480 ng/mL
[3]
  concentration at 24 hr: 9890 ng/mL
  concentration at 48 hr: 3740 ng/mL
  concentration at 72 hr: 282 ng/mL
[4]
  concentration at 48 hr: 9940 ng/mL
  concentration at 72 hr: 2180 ng/mL
[5]
  concentration at 0.5 h: 24 ng/mL
  concentration at 4 h: 1.7 ng/mL
Choroid homogenate, Choroid homogenate, OS, free acid, Group 3, read-out: Choroid Conc. (ng/mL) OS
  concentration at 0.5 h: 7.55 ng/mL
[6]
  concentration at 0.5 h: 25.6 ng/mL
  concentration at 4 h: 1.22 ng/mL
Choroid homogenate, Choroid homogenate, 1 hr, OD, free acid, Group 3, read-out: Choroid Conc. (ng/mL) OD
  concentration at 1 h: 6.04 ng/mL
Choroid homogenate, Choroid homogenate, 1 hr, OD, sodium salt, Group 2, read-out: Choroid Conc. (ng/mL) OD
  concentration at 1 h: 29.1 ng/mL
Choroid homogenate, Choroid homogenate, 1 hr, OS, free acid, Group 3, read-out: Choroid Conc. (ng/mL) OS
  concentration at 1 h: 8.01 ng/mL
Choroid homogenate, Choroid homogenate, 1 hr, OS, sodium salt, Group 2, read-out: Choroid Conc. (ng/mL) OS
  concentration at 1 h: 13.1 ng/mL
Choroid homogenate, Choroid homogenate, 2 hr, OD, free acid, Group 3, read-out: Choroid Conc. (ng/mL) OD
  concentration at 2 h: 3.32 ng/mL
Choroid homogenate, Choroid homogenate, 2 hr, OS, free acid, Group 3, read-out: Choroid Conc. (ng/mL) OS
  concentration at 2 h: 4.84 ng/mL
Choroid homogenate, Choroid homogenate, OD, free acid, Group 3, read-out: Choroid Conc. (ng/mL) OD
  concentration at 4 h: 4.82 ng/mL
Choroid homogenate, TABLE 16: Choroid homogenate, OS, free acid, Group 3, read-out: Choroid Conc. (ng/mL) OS
  concentration at 0.5 h: 7.55 ng/mL
Choroid homogenate, TABLE 16: Choroid homogenate, 1 hr, OD, free acid, Group 3, read-out: Choroid Conc. (ng/mL) OD
  concentration at 1 h: 6.04 ng/mL
Choroid homogenate, TABLE 16: Choroid homogenate, 1 hr, OS, free acid, Group 3, read-out: Choroid Conc. (ng/mL) OS
  concentration at 1 h: 8.01 ng/mL
Choroid homogenate, TABLE 16: Choroid homogenate, 2 hr, OD, free acid, Group 3, read-out: Choroid Conc. (ng/mL) OD
  concentration at 2 h: 3.32 ng/mL
Choroid homogenate, TABLE 16: Choroid homogenate, 2 hr, OS, free acid, Group 3, read-out: Choroid Conc. (ng/mL) OS
  concentration at 2 h: 4.84 ng/mL
Choroid homogenate, TABLE 16: Choroid homogenate, OD, free acid, Group 3, read-out: Choroid Conc. (ng/mL) OD
  concentration at 4 h: 4.82 ng/mL
[7]
  concentration at 6 hr: 346000 ng/g
  concentration at 24 hr: 130000 ng/g
  concentration at 48 hr: 38300 ng/g
[8]
  concentration at 6 hr: 484000 ng/g
  concentration at 24 hr: 109000 ng/g
  concentration at 48 hr: 41100 ng/g
  concentration at 72 hr: 3100 ng/g
[9]
  concentration at 6 hr: 664000 ng/g
  concentration at 24 hr: 398000 ng/g
  concentration at 48 hr: 120000 ng/g
  concentration at 72 hr: 27600 ng/g
[10]
  concentration at 6 hr: 697000 ng/g
  concentration at 24 hr: 312000 ng/g
  concentration at 48 hr: 103000 ng/g
  concentration at 72 hr: 29300 ng/g
[11]
  concentration at 6 hr: 947000 ng/g
  concentration at 24 hr: 139000 ng/g
  concentration at 48 hr: 38600 ng/g
  concentration at 72 hr: 2720 ng/g
[12]
  concentration at 48 hr: 109000 ng/g
  concentration at 72 hr: 24000 ng/g
[13]
  concentration at 0.5 h: 264 ng/g
  concentration at 4 h: 18.7 ng/g
choroid, Choroid, OS, free acid, Group 3, read-out: Choroid Conc. (ng/g) OS
  concentration at 0.5 h: 83.1 ng/g
[14]
  concentration at 0.5 h: 282 ng/g
  concentration at 4 h: 13.4 ng/g
[15]
  concentration at 0.5 h: 127 ng/g
  concentration at 4 h: 61 ng/g
[16]
  concentration at 0.5 h: 266 ng/g
  concentration at 4 h: 15.5 ng/g
choroid, Choroid, 1 hr, OD, free acid, Group 3, read-out: Choroid Conc. (ng/g) OD
  concentration at 1 h: 66.4 ng/g
choroid, Choroid, 1 hr, OD, sodium salt, Group 2, read-out: Choroid Conc. (ng/g) OD
  concentration at 1 h: 320 ng/g
choroid, Choroid, 1 hr, OS, free acid, Group 3, read-out: Choroid Conc. (ng/g) OS
  concentration at 1 h: 88.1 ng/g
choroid, Choroid, 1 hr, OS, sodium salt, Group 2, read-out: Choroid Conc. (ng/g) OS
  concentration at 1 h: 144 ng/g
choroid, Choroid, 1 hr, free acid, Group 3, read-out: Choroid Average
  concentration at 1 h: 83.3 ng/g
choroid, Choroid, 1 hr, sodium salt, Group 2, read-out: Choroid Average
  concentration at 1 h: 200 ng/g
choroid, Choroid, 2 hr, OD, free acid, Group 3, read-out: Choroid Conc. (ng/g) OD
  concentration at 2 h: 36.5 ng/g
choroid, Choroid, 2 hr, OS, free acid, Group 3, read-out: Choroid Conc. (ng/g) OS
  concentration at 2 h: 53.2 ng/g
choroid, Choroid, 2 hr, free acid, Group 3, read-out: Choroid Average
  concentration at 2 h: 47.7 ng/g
choroid, Choroid, 2 hr, sodium salt, Group 2, read-out: Choroid Average
  concentration at 2 h: 68.8 ng/g
choroid, Choroid, OD, free acid, Group 3, read-out: Choroid Conc. (ng/g) OD
  concentration at 4 h: 53 ng/g
choroid, TABLE 16: Choroid, OS, free acid, Group 3, read-out: Choroid Conc. (ng/g) OS
  concentration at 0.5 h: 83.1 ng/g
choroid, TABLE 16: Choroid, free acid, Group 3, read-out: Choroid Average
  concentration at 0.5 h: 127 ng/g
choroid, TABLE 16: Choroid, 1 hr, OD, free acid, Group 3, read-out: Choroid Conc. (ng/g) OD
  concentration at 1 h: 66.4 ng/g
choroid, TABLE 16: Choroid, 1 hr, OS, free acid, Group 3, read-out: Choroid Conc. (ng/g) OS
  concentration at 1 h: 88.1 ng/g
choroid, TABLE 16: Choroid, 1 hr, free acid, Group 3, read-out: Choroid Average
  concentration at 1 h: 83.3 ng/g
choroid, TABLE 16: Choroid, 2 hr, OD, free acid, Group 3, read-out: Choroid Conc. (ng/g) OD
  concentration at 2 h: 36.5 ng/g
